In the experiment the test system is Human corpus cavernosum tissue. The experiment is described as follows: In vitro comparative relaxation responses, isometric tension of phenylephrine-contracted tissue strips in organ chambers. The experiment is classed as cell-based. The following applies: doses of 10 μM and 30 μM, compared with an equimolar dose of dipyridamole; tissue contracted with phenylephrine 7×10^−7 M; −100% = tone after papaverine 10^−4 M; FIG. 40. The text has this: In Vitro Comparative Relaxation Responses
Human corpus cavernosum tissue biopsies were obtained at the time of penile prosthesis implantation from impotent men. The tissue was maintained in a chilled Krebs-bicarbonate solution prior to assay. The tissue was cut into strips of 0.3×0.3×1 cm and suspended in organ chambers for isometric tension measurement. Tissues were incrementally stretched until optimal isometric tension for contraction was obtained. Once this was achieved, the tissues were contracted with phenylephine (7×10^−7 M) and once a stable contraction was achieved, the tissues were exposed to either dipyridamole or Example 1 (10^−6 to 3×10^−5 M) by cumulative additions to the chamber. At the end of the experiment papaverine (10^−4 M) is added to obtain maximal relaxation. […] Data are expressed as the percent loss in tone from the phenylephrine-induced contraction (0%=phenylephrine contraction; −100% tone after the administration of papaverine).

Molecules are shown by their SMILES.

For the compound `CC(C)(CC(=O)OCCN(CCOC(=O)CC(C)(C)SN=O)c1nc(N2CCCCC2)c2nc(N(CCOC(=O)CC(C)(C)SN=O)CCOC(=O)CC(C)(C)SN=O)nc(N3CCCCC3)c2n1)SN=O` [Example 1, 2,6-bis(diethyl(3-methyl-3(nitrosothiol)butyric acid ester)amino)-4,8-dipiperidinopyrimido-[5,4d]-pyrimidine], the “relaxing the phenylephrine-induced contraction (percent loss in tone from the phenylephrine-induced contraction)” value is “more efficacious”.

For the origin of these results see patent publication US6472425B1, “Methods for treating female sexual dysfunctions” (NitroMed, Inc., priority 1997, dated 2002).
